Laboratory results published in ChEMBL document CHEMBL3745618, “Identification of Non-nucleoside Human Ribonucleotide Reductase Modulators” (J Med Chem, 2015).
Non-standard residues stand in square brackets, D forms with d. Residues, ends and D or L forms follow the SMILES beside them. Sar = CNCC(=O)O

Tests used:
MDA-MB-231 [1] = test: Growth inhibition of human MDA-MB-231 cells assessed as 1-relative growth at 1 uM after 3 days by DNA dye binding assay; assay type: functional
MDA-MB-231 [2] = test: Growth inhibition of human MDA-MB-231 cells assessed as 1-relative growth at 10 uM after 3 days by DNA dye binding assay; assay type: functional
[3] = Growth inhibition of human HCT116 cells assessed as 1-relative growth at 10 uM after 3 days by DNA dye binding assay; assay type: functional, HCT-116
[4] = Growth inhibition of human HCT116 cells assessed as 1-relative growth at 1 uM after 3 days by DNA dye binding assay; assay type: functional, HCT-116
[5] = molecular target: T1, Ribonucleoside-diphosphate reductase large subunit (Homo sapiens, UniProt P23921); test: Inhibition of human ribonucleotide reductase M1 subunit expressed in Escherichia coli BL21 (DE3) using 14C-ADP as substrate by liquid scintillation counting analysis
T1 sequence (P23921 whole entry): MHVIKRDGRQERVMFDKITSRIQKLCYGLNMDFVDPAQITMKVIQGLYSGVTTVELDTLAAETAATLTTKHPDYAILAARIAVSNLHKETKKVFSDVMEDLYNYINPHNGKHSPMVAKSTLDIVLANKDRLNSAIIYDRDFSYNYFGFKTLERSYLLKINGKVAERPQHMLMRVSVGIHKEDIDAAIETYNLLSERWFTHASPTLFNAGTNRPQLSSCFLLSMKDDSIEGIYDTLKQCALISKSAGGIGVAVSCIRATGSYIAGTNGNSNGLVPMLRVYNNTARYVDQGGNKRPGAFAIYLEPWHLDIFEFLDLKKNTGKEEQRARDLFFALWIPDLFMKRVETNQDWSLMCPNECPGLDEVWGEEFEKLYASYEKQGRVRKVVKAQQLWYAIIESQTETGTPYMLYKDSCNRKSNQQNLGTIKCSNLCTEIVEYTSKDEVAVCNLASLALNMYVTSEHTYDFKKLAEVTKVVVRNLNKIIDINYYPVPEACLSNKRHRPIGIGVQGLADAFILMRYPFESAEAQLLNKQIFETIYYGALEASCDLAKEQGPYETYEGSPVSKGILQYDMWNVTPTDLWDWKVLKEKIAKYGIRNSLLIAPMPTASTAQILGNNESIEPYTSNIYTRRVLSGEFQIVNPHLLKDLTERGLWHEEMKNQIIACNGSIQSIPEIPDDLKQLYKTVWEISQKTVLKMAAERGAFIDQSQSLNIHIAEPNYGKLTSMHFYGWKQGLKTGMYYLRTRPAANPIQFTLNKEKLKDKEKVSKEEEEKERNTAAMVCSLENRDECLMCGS

MDA-MB-231 [6] = test: Potentiation of gemcitabine-induced cytotoxicity against human MDA-MB-231 assessed as effective dose of gemcitabine at 2.5 uM after 72 hrs MTT assay (reference value: 0.92 uM); assay type: functional

CCOC(=O)C(NC(=O)CN[C@H]1CCCc2sccc21)C(=O)OCC
Activity (MDA-MB-231 [1]): -0.199 | Activity (MDA-MB-231 [2]): 0.531

CC(NCCCCCO)c1cc(OCc2ccccc2)cc(OCc2ccccc2)c1 (stereo unspecified)
Activity [3]: 0.036 | Activity (MDA-MB-231 [1]): -0.076 | Activity [4]: -0.076 | Activity (MDA-MB-231 [2]): 0.036

CCOC(=O)C[C@@H](CC(=O)NCCN[C@H](C)c1ccc(O)c(C(=O)OC)c1)OC(C)=O
Activity [3]: 0.096 | Activity (MDA-MB-231 [1]): 0.098 | Activity [4]: 0.098 | Activity (MDA-MB-231 [2]): 0.096

CCCOc1ccc(C(=O)OCCN(CC)CC)cc1NS(=O)(=O)/C=C/c1ccccc1
Activity [3]: 0.043 | Activity (MDA-MB-231 [1]): -0.033 | Activity [4]: -0.033 | Activity (MDA-MB-231 [2]): 0.043

CCCCCCCCCCCCCCNC(=O)[C@@H](N)CCN
Activity [3]: 0.69 | Activity (MDA-MB-231 [1]): 0.072 | Activity [4]: 0.072 | Activity (MDA-MB-231 [2]): 0.69

CCC(C)(C)c1ccc(OCCCCNC(=O)c2cc(Oc3ccc([N+](=O)[O-])cc3)c3ccccc3c2O)c(C(C)(C)CC)c1
Activity (MDA-MB-231 [1]): 0.038 | Activity [4]: 0.038 | Activity (MDA-MB-231 [2]): 0.398

NC(=O)NO [HYDROXYUREA]
IC50 [5]: 997 µM

CCCCCCCCCCCCCCCC(=O)N[C@@H](CCCCN)C(=O)N[C@@H](CCCCN)C(=O)OC
Activity [3]: -0.089 | Activity (MDA-MB-231 [1]): -0.219 | Activity (MDA-MB-231 [2]): -0.089

CNCC(=O)N[C@@H](CCCNC(=N)N)C(=O)N[C@H](C(=O)N[C@@H](Cc1ccc(O)cc1)C(=O)N[C@H](C(=O)N[C@@H](Cc1cnc[nH]1)C(=O)O)C(C)C)C(C)C (H-[Sar]RVYVH-OH)
Activity [3]: 0.158 | Activity (MDA-MB-231 [1]): 0.108 | Activity [4]: 0.108 | Activity (MDA-MB-231 [2]): 0.158

CC(C)(NC(=O)CN1C(=O)c2ccccc2C1=O)C(=O)NCCCC[C@H](NC(=O)CC(O)(C(F)(F)F)C(F)(F)F)C(=O)O
Activity (MDA-MB-231 [1]): 0.057 | Activity [4]: 0.057 | Activity (MDA-MB-231 [2]): 0.608

OC(COc1ccc(OCC(O)CN2CCN(C3c4ccccc4-c4ccccc43)CC2)cc1)CN1CCN(C2c3ccccc3-c3ccccc32)CC1 (stereo unspecified)
Activity [3]: 0.88 | ED (MDA-MB-231 [6]): 0.1 µM | Activity (MDA-MB-231 [1]): -0.396 | Activity (MDA-MB-231 [2]): 0.88
